Assay [1] deals with Bacillus subtilis ATCC 6633. Put plainly: Agar diffusion assay. The assay is classed as cell-based. To be noted: ATCC6633, 50 μL of 0.5 mg in 1 mL methanol per 7 mm hole, n.a. = no activity observed, read-out: diameter of inhibition zone. The procedure: (§1) Antimicrobial activities of the gulmirecins were determined in a primary screen against Bacillus subtilis ATCC 6633, Staphylococcus aureus SG511, Staphylococcus auricularis DSM 20609, Mycobacterium vaccae IMET 10670, Pseudomonas aeruginosa K799/61, Escherichia coli SG458, Sporobolomyces salmonicolor SBUG 549, Candida albicans ATCC14053 and Penicillium notatum JP 36. To this end, holes with 7 mm diameter were aseptically punched in the respective agar medium. Subsequently, the agar plates were inoculated with the test organisms. 0.5 mg of every test compound was dissolved in 1 mL of methanol, and 50 μL of this solution was transferred to a single hole. Ciprofloxacin and amphotericin B served as positive controls. After evaporation of the solvent, the agar plates were incubated depending on the growth conditions of the test organisms. […] The test results are shown in Table 6 below, wherein the given values represent the diameters of the respective inhibition zone in the agar diffusion assay.
On the technique in general: Agar diffusion results depend on both activity and mobility in agar.

Assay [2] has as its system Mycobacterium vaccae IMET 10670. In words: Agar diffusion assay. The assay is classed as cell-based. To be noted: Mycolicibacterium vaccae, IMET10670; 50 μL of 0.5 mg in 1 mL methanol per 7 mm hole; n.a. = no activity observed; read-out: diameter of inhibition zone. As for the experimental part: as §1

A word on the zone of inhibition: it is the size of the clear area around the sample on an inoculated plate. As for `C/C=C(/C)[C@H]1C/C=C(\C)[C@@H](O[C@H]2O[C@H](CO)[C@@H](O)[C@@H]2O)[C@H](OC(=O)CC(C)C)C(=O)C[C@@H](O)[C@H](C)C(=O)O1` [Compound 3, gulmirecin A], the zone of inhibition at 25 µg/hole was 35 mm in assay [1] and 17 mm in assay [2].

These data come from patent publication US20200231562A1, “NOVEL MACROLIDE ANTIBIOTICS” (HELMHOLTZ-ZENTRUM FÜR INFEKTIONSFORSCHUNG GMBH, priority 2014, published 2020).
